Results from ChEMBL document CHEMBL4406869, “Benzo[b]thiophene-thiazoles as potent anti-Toxoplasma gondii agents: Design, synthesis, tyrosinase/tyrosine hydroxylase inhibitors, molecular docking study, and antioxidant activity” (Eur J Med Chem, 2019).

Tests used:
[1] = Antioxidant activity assessed as DPPH radical scavenging activity incubated for 30 mins under dark condition by Uv-vis spectrophotometric method; assay type: functional
[2] = Potency index, ratio of butylated hydroxytoluene IC50 to test compound IC50 for antioxidant activity assessed as DPPH radical scavenging activity; assay type: functional
L929 = assay: Cytotoxicity against mouse L929 cells assessed as reduction in cell viability after 24 hrs by MTT assay; assay type: cell-based; conditions: l929, 24 h
Tyrosinase = biological target: T1, Tyrosinase (Agaricus bisporus, UniProt O42713); assay: Inhibition of mushroom tyrosinase using L-dopa as substrate by spectrophotometric method
T1 sequence (O42713 whole entry): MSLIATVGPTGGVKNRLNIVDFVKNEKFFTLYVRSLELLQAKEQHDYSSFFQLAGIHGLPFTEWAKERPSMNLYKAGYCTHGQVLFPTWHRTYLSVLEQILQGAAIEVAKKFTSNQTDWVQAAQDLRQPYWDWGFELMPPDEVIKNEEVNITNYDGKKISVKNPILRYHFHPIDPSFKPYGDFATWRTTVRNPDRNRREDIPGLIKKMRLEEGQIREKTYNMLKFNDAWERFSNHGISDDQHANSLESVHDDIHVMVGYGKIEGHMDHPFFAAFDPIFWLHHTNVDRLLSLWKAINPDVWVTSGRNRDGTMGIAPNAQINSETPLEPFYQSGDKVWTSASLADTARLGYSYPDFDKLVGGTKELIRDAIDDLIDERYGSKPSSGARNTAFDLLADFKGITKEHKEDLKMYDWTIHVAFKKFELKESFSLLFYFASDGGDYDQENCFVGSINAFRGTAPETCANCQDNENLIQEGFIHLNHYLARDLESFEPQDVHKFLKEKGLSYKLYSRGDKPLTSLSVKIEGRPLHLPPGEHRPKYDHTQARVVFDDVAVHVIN

[3] = Selectivity ratio of CC30 for cytotoxicity against mouse L929 cells to IC50 for antiparasitic activity against Toxoplasma gondii RH infected in human Hs27 cells; assay type: toxicity, cell-based
Toxoplasma gondii [4] = assay: Antiparasitic activity against Toxoplasma gondii ME49 tachyzoites infected in human Hs27 cells assessed as inhibition of parasitic growth preincubated for 24 hrs followed by [5,6-3H]uracil addition and measured after 72 hrs by liquid scintillation counting analysis; assay type: functional, organism-based
[5] = Selectivity ratio of CC30 for cytotoxicity against mouse L929 cells to IC50 for antiparasitic activity against Toxoplasma gondii Me49 infected in human Hs27 cells; assay type: toxicity, cell-based
Toxoplasma gondii [6] = assay: Antiparasitic activity against Toxoplasma gondii RH tachyzoites infected in human Hs27 cells assessed as inhibition of parasitic growth preincubated for 24 hrs followed by [5,6-3H]uracil addition and measured after 72 hrs by liquid scintillation counting analysis; assay type: functional, organism-based
[7] = Cytotoxicity against mouse L929 cells assessed as cell viability at 100 ug/ml after 24 hrs by MTT assay relative to control; assay type: cell-based; conditions: read-out: Activity
[8] = Cytotoxicity against mouse L929 cells assessed as cell viability at 400 ug/ml after 24 hrs by MTT assay relative to control; assay type: cell-based; conditions: read-out: Activity
[9] = Cytotoxicity against mouse L929 cells assessed as cell viability at 200 ug/ml after 24 hrs by MTT assay relative to control; assay type: cell-based; conditions: read-out: Activity
[10] = Cytotoxicity against mouse L929 cells assessed as cell viability at 50 ug/ml after 24 hrs by MTT assay relative to control; assay type: cell-based; conditions: read-out: Activity
[11] = Cytotoxicity against mouse L929 cells assessed as cell viability at 25 ug/ml after 24 hrs by MTT assay relative to control; assay type: cell-based; conditions: read-out: Activity
[12] = Cytotoxicity against mouse L929 cells assessed as cell viability at 12.5 ug/ml after 24 hrs by MTT assay relative to control; assay type: cell-based; conditions: read-out: Activity
[13] = Cytotoxicity against mouse L929 cells assessed as cell viability at 6.25 ug/ml after 24 hrs by MTT assay relative to control; assay type: cell-based; conditions: read-out: Activity
[14] = Cytotoxicity against mouse L929 cells assessed as cell viability at 3.125 ug/ml after 24 hrs by MTT assay relative to control; assay type: cell-based; conditions: read-out: Activity
[15] = Cytotoxicity against mouse L929 cells assessed as cell viability at 1.56 ug/ml after 24 hrs by MTT assay relative to control; assay type: cell-based; conditions: read-out: Activity
[16] = Cytotoxicity against mouse L929 cells assessed as cell viability at 0.78 ug/ml after 24 hrs by MTT assay relative to control; assay type: cell-based; conditions: read-out: Activity
Toxoplasma gondii [17] = assay: Antiparasitic activity against Toxoplasma gondii RH tachyzoites infected in human Hs27 cells assessed as reduction in parasite proliferation at 100 ug/mL preincubated for 24 hrs followed by [5,6-3H]uracil addition and measured after 72 hrs by liquid scintillation counting analysis relative to control; assay type: functional; parameters: scale not given: the % may be the effect or the level left
Toxoplasma gondii [18] = assay: Antiparasitic activity against Toxoplasma gondii ME49 tachyzoites infected in human Hs27 cells assessed as reduction in parasite proliferation at 100 ug/mL preincubated for 24 hrs followed by [5,6-3H]uracil addition and measured after 72 hrs by liquid scintillation counting analysis relative to control; assay type: functional; parameters: scale not given: the % may be the effect or the level left
Toxoplasma gondii [19] = assay: Antiparasitic activity against Toxoplasma gondii RH tachyzoites infected in human Hs27 cells assessed as reduction in parasite proliferation at 50 ug/mL preincubated for 24 hrs followed by [5,6-3H]uracil addition and measured after 72 hrs by liquid scintillation counting analysis relative to control; assay type: functional; parameters: scale not given: the % may be the effect or the level left
Toxoplasma gondii [20] = assay: Antiparasitic activity against Toxoplasma gondii ME49 tachyzoites infected in human Hs27 cells assessed as reduction in parasite proliferation at 50 ug/mL preincubated for 24 hrs followed by [5,6-3H]uracil addition and measured after 72 hrs by liquid scintillation counting analysis relative to control; assay type: functional; parameters: scale not given: the % may be the effect or the level left
Toxoplasma gondii [21] = assay: Antiparasitic activity against Toxoplasma gondii RH tachyzoites infected in human Hs27 cells assessed as reduction in parasite proliferation at 25 ug/mL preincubated for 24 hrs followed by [5,6-3H]uracil addition and measured after 72 hrs by liquid scintillation counting analysis relative to control; assay type: functional; parameters: scale not given: the % may be the effect or the level left
Toxoplasma gondii [22] = assay: Antiparasitic activity against Toxoplasma gondii ME49 tachyzoites infected in human Hs27 cells assessed as reduction in parasite proliferation at 25 ug/mL preincubated for 24 hrs followed by [5,6-3H]uracil addition and measured after 72 hrs by liquid scintillation counting analysis relative to control; assay type: functional; parameters: scale not given: the % may be the effect or the level left
Toxoplasma gondii [23] = assay: Antiparasitic activity against Toxoplasma gondii RH tachyzoites infected in human Hs27 cells assessed as reduction in parasite proliferation at 12.5 ug/mL preincubated for 24 hrs followed by [5,6-3H]uracil addition and measured after 72 hrs by liquid scintillation counting analysis relative to control; assay type: functional; parameters: scale not given: the % may be the effect or the level left
Toxoplasma gondii [24] = assay: Antiparasitic activity against Toxoplasma gondii ME49 tachyzoites infected in human Hs27 cells assessed as reduction in parasite proliferation at 12.5 ug/mL preincubated for 24 hrs followed by [5,6-3H]uracil addition and measured after 72 hrs by liquid scintillation counting analysis relative to control; assay type: functional; parameters: scale not given: the % may be the effect or the level left
Toxoplasma gondii [25] = assay: Antiparasitic activity against Toxoplasma gondii RH tachyzoites infected in human Hs27 cells assessed as reduction in parasite proliferation at 6.25 ug/mL preincubated for 24 hrs followed by [5,6-3H]uracil addition and measured after 72 hrs by liquid scintillation counting analysis relative to control; assay type: functional; parameters: scale not given: the % may be the effect or the level left
Toxoplasma gondii [26] = assay: Antiparasitic activity against Toxoplasma gondii ME49 tachyzoites infected in human Hs27 cells assessed as reduction in parasite proliferation at 6.25 ug/mL preincubated for 24 hrs followed by [5,6-3H]uracil addition and measured after 72 hrs by liquid scintillation counting analysis relative to control; assay type: functional; parameters: scale not given: the % may be the effect or the level left
Toxoplasma gondii [27] = assay: Antiparasitic activity against Toxoplasma gondii RH tachyzoites infected in human Hs27 cells assessed as reduction in parasite proliferation at 3.125 ug/mL preincubated for 24 hrs followed by [5,6-3H]uracil addition and measured after 72 hrs by liquid scintillation counting analysis relative to control; assay type: functional; parameters: scale not given: the % may be the effect or the level left
Toxoplasma gondii [28] = assay: Antiparasitic activity against Toxoplasma gondii ME49 tachyzoites infected in human Hs27 cells assessed as reduction in parasite proliferation at 3.125 ug/mL preincubated for 24 hrs followed by [5,6-3H]uracil addition and measured after 72 hrs by liquid scintillation counting analysis relative to control; assay type: functional; parameters: scale not given: the % may be the effect or the level left
Toxoplasma gondii [29] = assay: Antiparasitic activity against Toxoplasma gondii RH tachyzoites infected in human Hs27 cells assessed as reduction in parasite proliferation at 1.56 ug/mL preincubated for 24 hrs followed by [5,6-3H]uracil addition and measured after 72 hrs by liquid scintillation counting analysis relative to control; assay type: functional; parameters: scale not given: the % may be the effect or the level left
Toxoplasma gondii [30] = assay: Antiparasitic activity against Toxoplasma gondii ME49 tachyzoites infected in human Hs27 cells assessed as reduction in parasite proliferation at 1.56 ug/mL preincubated for 24 hrs followed by [5,6-3H]uracil addition and measured after 72 hrs by liquid scintillation counting analysis relative to control; assay type: functional; parameters: scale not given: the % may be the effect or the level left
Toxoplasma gondii [31] = assay: Antiparasitic activity against Toxoplasma gondii RH tachyzoites infected in human Hs27 cells assessed as reduction in parasite proliferation at 0.78 ug/mL preincubated for 24 hrs followed by [5,6-3H]uracil addition and measured after 72 hrs by liquid scintillation counting analysis relative to control; assay type: functional; parameters: scale not given: the % may be the effect or the level left
Toxoplasma gondii [32] = assay: Antiparasitic activity against Toxoplasma gondii ME49 tachyzoites infected in human Hs27 cells assessed as reduction in parasite proliferation at 0.78 ug/mL preincubated for 24 hrs followed by [5,6-3H]uracil addition and measured after 72 hrs by liquid scintillation counting analysis relative to control; assay type: functional; parameters: scale not given: the % may be the effect or the level left
Toxoplasma gondii [33] = assay: Antiparasitic activity against Toxoplasma gondii RH tachyzoites infected in human Hs27 cells assessed as reduction in parasite proliferation at 0.39 ug/mL preincubated for 24 hrs followed by [5,6-3H]uracil addition and measured after 72 hrs by liquid scintillation counting analysis relative to control; assay type: functional; parameters: scale not given: the % may be the effect or the level left

Compound: O=c1oc2ccccc2cc1-c1csc(N/N=C/c2cc3ccccc3s2)n1
- IC50 [1]: 15.9 µM
- Ratio IC50 [2]: 10

Compound: Cc1cc(C(C)(C)C)c(O)c(C(C)(C)C)c1 [BUTYLATED HYDROXYTOLUENE]
- IC50 [1]: 180 µM

Compound: Ic1ccc(-c2csc(N/N=C/c3cc4ccccc4s3)n2)cc1
- CC30 (L929): 946.2 µM
- IC50 (Tyrosinase): 431 µM

Compound: Nc1ccc(S(=O)(=O)Nc2ncccn2)cc1 [SULFADIAZINE]
- CC30 (L929): >= 5000 uM
- selectivity ratio [3]: 0.46
- IC50 (Toxoplasma gondii [4]): 13000 µM
- selectivity ratio [5]: 0.39

Compound: COc1cc(Cc2cnc(N)nc2N)cc(OC)c1OC [TRIMETHOPRIM]
- CC30 (L929): 55.11 µM
- IC50 (Toxoplasma gondii [6]): 41.8 µM
- selectivity ratio [3]: 1.32
- IC50 (Toxoplasma gondii [4]): 39.2 µM
- selectivity ratio [5]: 1.4

Compound: Fc1ccc(-c2csc(N/N=C/c3cc4ccccc4s3)n2)cc1
- CC30 (L929): 1385.75 µM
- IC50 (Tyrosinase): 396 µM

Compound: Brc1ccc(-c2csc(N/N=C/c3cc4ccccc4s3)n2)cc1
- CC30 (L929): 283.56 µM
- IC50 (Tyrosinase): 433 µM

Compound: Clc1ccc(-c2csc(N/N=C/c3cc4ccccc4s3)n2)cc1
- CC30 (L929): 1255.05 µM
- IC50 (Tyrosinase): 390 µM

Compound: Cc1ccc(-c2csc(N/N=C/c3cc4ccccc4s3)n2)cc1
- CC30 (L929): 884.28 µM
- IC50 (Tyrosinase): 466 µM

Compound: C(=N\Nc1nc(C23CC4CC(CC(C4)C2)C3)cs1)/c1cc2ccccc2s1
- viability at 24 h, 100 ug/ml [7]: 89%
- viability at 24 h, 400 ug/ml [8]: 76.8%
- CC30 (L929): 1333.46 µM
- IC50 (Toxoplasma gondii [6]): 51.9 µM
- viability at 24 h, 200 ug/ml [9]: 81.8%
- viability at 24 h, 50 ug/ml [10]: 90.7%
- viability at 24 h, 25 ug/ml [11]: 98.3%
- viability at 24 h, 12.5 ug/ml [12]: 96.5%
- viability at 24 h, 6.25 ug/ml [13]: 101%
- viability at 24 h, 3.125 ug/ml [14]: 104%
- viability at 24 h, 1.56 ug/ml [15]: 105%
- viability at 24 h, 0.78 ug/ml [16]: 107%
- Activity (Toxoplasma gondii [17]): 6.32%
- Activity (Toxoplasma gondii [18]): 0.53%
- Activity (Toxoplasma gondii [19]): 28.7%
- Activity (Toxoplasma gondii [20]): 1.17%
- Activity (Toxoplasma gondii [21]): 46.12%
- Activity (Toxoplasma gondii [22]): 5.61%
- Activity (Toxoplasma gondii [23]): 58.29%
- Activity (Toxoplasma gondii [24]): 7.85%
- Activity (Toxoplasma gondii [25]): 83.32%
- Activity (Toxoplasma gondii [26]): 9.6%
- Activity (Toxoplasma gondii [27]): 90.86%
- Activity (Toxoplasma gondii [28]): 25.5%
- Activity (Toxoplasma gondii [29]): 101.85%
- Activity (Toxoplasma gondii [30]): 49.76%
- Activity (Toxoplasma gondii [31]): 92.05%
- Activity (Toxoplasma gondii [32]): 101.96%
- Activity (Toxoplasma gondii [33]): 1.24%
- selectivity ratio [3]: 25.7
- IC50 (Toxoplasma gondii [4]): 8.74 µM
- selectivity ratio [5]: 153
- IC50 (Tyrosinase): 329 µM
- IC50 [1]: 15.5 µM
